# Experimental data: PubChem BioAssay AID2060622 (Molecular Pharmacology Branch, DTP, NCI, 2025)
# Test system: 242566-281-R-J2-PDC complex spheroid viability
# Assay: Anticancer human tumor 242566-281-R-J2-PDC patient-derived pancreatic carcinoma cell line growth inhibition [CLK]
# Details: for IC50: curve of first compound; for viability, T/C: stronger effect = lower value
# Procedure, shortened: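 Multi-cell-type spheroids combined patient-derived tumor cells with HUVEC endothelial cells and human mesenchymal stem cells. Paired agents were dosed in half-log steps down from about clinical Cmax, or from 10 microM where Cmax was unknown.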
# [1] = second compound 0.0316 µM, first compound 0.00949 µM
# [2] = second compound 0.0316 µM, first compound 0.03 µM
# [3] = second compound 0.0316 µM, first compound 0.0949 µM
# [4] = second compound 0.0316 µM, first compound 0.3 µM
# [5] = second compound 0.1 µM, first compound 0.00949 µM
# [6] = second compound 0.1 µM, first compound 0.03 µM
# [7] = second compound 0.1 µM, first compound 0.0949 µM
# [8] = second compound 0.1 µM, first compound 0.3 µM
# [9] = second compound 0.316 µM, first compound 0.00949 µM
# [10] = second compound 0.316 µM, first compound 0.03 µM
# [11] = second compound 0.316 µM, first compound 0.0949 µM
# [12] = second compound 0.316 µM, first compound 0.3 µM
# [13] = second compound 1 µM, first compound 0.00949 µM
# [14] = second compound 1 µM, first compound 0.03 µM
# [15] = second compound 1 µM, first compound 0.0949 µM
# [16] = second compound 1 µM, first compound 0.3 µM
# [17] = second compound 3.16 µM, first compound 0.00949 µM
# [18] = second compound 3.16 µM, first compound 0.03 µM
# [19] = second compound 3.16 µM, first compound 0.0949 µM
# [20] = second compound 3.16 µM, first compound 0.3 µM
# [21] = second compound 10 µM, first compound 0.00949 µM
# [22] = second compound 10 µM, first compound 0.03 µM
# [23] = second compound 10 µM, first compound 0.0949 µM
# [24] = second compound 10 µM, first compound 0.3 µM
# [25] = second compound 0.0316 µM, first compound 0.0316 µM
# [26] = second compound 0.0316 µM, first compound 0.1 µM
# [27] = second compound 0.0316 µM, first compound 0.316 µM
# [28] = second compound 0.0316 µM, first compound 1 µM
# [29] = second compound 0.0316 µM, first compound 3.16 µM
# [30] = second compound 0.0316 µM, first compound 10 µM
# [31] = second compound 0.1 µM, first compound 0.0316 µM
# [32] = second compound 0.1 µM, first compound 0.1 µM
# [33] = second compound 0.1 µM, first compound 0.316 µM
# [34] = second compound 0.1 µM, first compound 1 µM
# [35] = second compound 0.1 µM, first compound 3.16 µM
# [36] = second compound 0.1 µM, first compound 10 µM
# [37] = second compound 0.316 µM, first compound 0.0316 µM
# [38] = second compound 0.316 µM, first compound 0.1 µM
# [39] = second compound 0.316 µM, first compound 0.316 µM
# [40] = second compound 0.316 µM, first compound 1 µM
# [41] = second compound 0.316 µM, first compound 3.16 µM
# [42] = second compound 0.316 µM, first compound 10 µM
# [43] = second compound 1 µM, first compound 0.0316 µM
# [44] = second compound 1 µM, first compound 0.1 µM
# [45] = second compound 1 µM, first compound 0.316 µM
# [46] = second compound 1 µM, first compound 1 µM
# [47] = second compound 1 µM, first compound 3.16 µM
# [48] = second compound 1 µM, first compound 10 µM
# [49] = second compound 3.16 µM, first compound 0.0316 µM
# [50] = second compound 3.16 µM, first compound 0.1 µM
# [51] = second compound 3.16 µM, first compound 0.316 µM
# [52] = second compound 3.16 µM, first compound 1 µM
# [53] = second compound 3.16 µM, first compound 3.16 µM
# [54] = second compound 3.16 µM, first compound 10 µM
# [55] = second compound 10 µM, first compound 0.0316 µM
# [56] = second compound 10 µM, first compound 0.1 µM
# [57] = second compound 10 µM, first compound 0.316 µM
# [58] = second compound 10 µM, first compound 1 µM
# [59] = second compound 10 µM, first compound 3.16 µM
# [60] = second compound 10 µM, first compound 10 µM
# 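Further: spheroids exposed to compounds for 7 days before readout.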
# 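Wherever viability, T/C is given: 100% = DMSO vehicle control wells.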
structure (smiles),measurement,setting,value
C=CC(=O)Nc1cc(Nc2nccc(-c3cn(C)c4ccccc34)n2)c(OC)cc1N(C)CCN(C)C + CN1CCN(c2cc(C(=O)Nc3cc4cc(-c5cnn(C)c5)ccc4cn3)ccn2)CC1,IC50,second compound 0.0316 µM,> 300 nM
same,IC50,second compound 0.1 µM,> 300 nM
same,IC50,second compound 0.316 µM,< 0.949 nM
same,IC50,second compound 1 µM,< 0.949 nM
same,IC50,second compound 3.16 µM,< 0.949 nM
same,IC50,second compound 10 µM,< 0.949 nM
same,"viability, T/C","second compound 0.0316 µM, first compound 0.000949 µM",92.7%
same,"viability, T/C","second compound 0.0316 µM, first compound 0.003 µM",103%
same,"viability, T/C",[1],91.8%
same,"viability, T/C",[2],96.7%
same,"viability, T/C",[3],95.1%
same,"viability, T/C",[4],71.8%
same,"viability, T/C","second compound 0.1 µM, first compound 0.000949 µM",102%
same,"viability, T/C","second compound 0.1 µM, first compound 0.003 µM",85.8%
same,"viability, T/C",[5],84.2%
same,"viability, T/C",[6],73.6%
same,"viability, T/C",[7],79.8%
same,"viability, T/C",[8],62.9%
same,"viability, T/C","second compound 0.316 µM, first compound 0.000949 µM",32.1%
same,"viability, T/C","second compound 0.316 µM, first compound 0.003 µM",33.7%
same,"viability, T/C",[9],27.7%
same,"viability, T/C",[10],23%
same,"viability, T/C",[11],25.2%
same,"viability, T/C",[12],20.1%
same,"viability, T/C","second compound 1 µM, first compound 0.000949 µM",4.67%
same,"viability, T/C","second compound 1 µM, first compound 0.003 µM",4.02%
same,"viability, T/C",[13],4.33%
same,"viability, T/C",[14],3.28%
same,"viability, T/C",[15],2.72%
same,"viability, T/C",[16],2.12%
same,"viability, T/C","second compound 3.16 µM, first compound 0.000949 µM",6.9%
same,"viability, T/C","second compound 3.16 µM, first compound 0.003 µM",6.41%
same,"viability, T/C",[17],6.23%
same,"viability, T/C",[18],6.27%
same,"viability, T/C",[19],5.66%
same,"viability, T/C",[20],4.09%
same,"viability, T/C","second compound 10 µM, first compound 0.000949 µM",2.35%
same,"viability, T/C","second compound 10 µM, first compound 0.003 µM",1.98%
same,"viability, T/C",[21],1.72%
same,"viability, T/C",[22],2.34%
same,"viability, T/C",[23],2.25%
same,"viability, T/C",[24],1.2%
CC1(C)CCC(CN2CCN(c3ccc(C(=O)NS(=O)(=O)c4ccc(NCC5CCOCC5)c([N+](=O)[O-])c4)c(Oc4cnc5[nH]ccc5c4)c3)CC2)=C(c2ccc(Cl)cc2)C1 + CN1CCN(c2cc(C(=O)Nc3cc4cc(-c5cnn(C)c5)ccc4cn3)ccn2)CC1,IC50,second compound 0.0316 µM,6540 nM
same,IC50,second compound 0.1 µM,6080 nM
same,IC50,second compound 0.316 µM,< 31.6 nM
same,IC50,second compound 1 µM,< 31.6 nM
same,IC50,second compound 3.16 µM,< 31.6 nM
same,IC50,second compound 10 µM,< 31.6 nM
same,"viability, T/C",[25],109%
same,"viability, T/C",[26],109%
same,"viability, T/C",[27],101%
same,"viability, T/C",[28],112%
same,"viability, T/C",[29],109%
same,"viability, T/C",[30],16.1%
same,"viability, T/C",[31],100%
same,"viability, T/C",[32],92.8%
same,"viability, T/C",[33],93.2%
same,"viability, T/C",[34],96.9%
same,"viability, T/C",[35],107%
same,"viability, T/C",[36],13.4%
same,"viability, T/C",[37],38.1%
same,"viability, T/C",[38],34%
same,"viability, T/C",[39],31.9%
same,"viability, T/C",[40],38.9%
same,"viability, T/C",[41],36.2%
same,"viability, T/C",[42],5.57%
same,"viability, T/C",[43],5.27%
same,"viability, T/C",[44],5.79%
same,"viability, T/C",[45],6.15%
same,"viability, T/C",[46],6.22%
same,"viability, T/C",[47],5.21%
same,"viability, T/C",[48],1.17%
same,"viability, T/C",[49],7.94%
same,"viability, T/C",[50],7.2%
same,"viability, T/C",[51],8.15%
same,"viability, T/C",[52],7.96%
same,"viability, T/C",[53],6.33%
same,"viability, T/C",[54],1.38%
same,"viability, T/C",[55],2.16%
same,"viability, T/C",[56],2.09%
same,"viability, T/C",[57],1.92%
same,"viability, T/C",[58],2.08%
same,"viability, T/C",[59],1.25%
same,"viability, T/C",[60],0.24%
NC(=O)C(=Cn1cnc(-c2cc(C(F)(F)F)cc(C(F)(F)F)c2)n1)c1cncnc1 + CN1CCN(c2cc(C(=O)Nc3cc4cc(-c5cnn(C)c5)ccc4cn3)ccn2)CC1,IC50,second compound 0.0316 µM,978 nM
same,IC50,second compound 0.1 µM,465 nM
same,IC50,second compound 0.316 µM,< 9.49 nM
same,IC50,second compound 1 µM,< 9.49 nM
same,IC50,second compound 3.16 µM,< 9.49 nM
same,IC50,second compound 10 µM,< 9.49 nM
same,"viability, T/C",[1],99.3%
same,"viability, T/C",[2],106%
same,"viability, T/C",[3],97%
same,"viability, T/C",[4],84.1%
same,"viability, T/C","second compound 0.0316 µM, first compound 0.949 µM",50.9%
same,"viability, T/C","second compound 0.0316 µM, first compound 3 µM",19.7%
same,"viability, T/C",[5],92.5%
same,"viability, T/C",[6],83.6%
same,"viability, T/C",[7],84.4%
same,"viability, T/C",[8],60%
same,"viability, T/C","second compound 0.1 µM, first compound 0.949 µM",31.7%
same,"viability, T/C","second compound 0.1 µM, first compound 3 µM",7.32%
same,"viability, T/C",[9],29.2%
same,"viability, T/C",[10],16.8%
same,"viability, T/C",[11],6.44%
same,"viability, T/C",[12],3.56%
same,"viability, T/C","second compound 0.316 µM, first compound 0.949 µM",3.41%
same,"viability, T/C","second compound 0.316 µM, first compound 3 µM",4.67%
same,"viability, T/C",[13],3.11%
same,"viability, T/C",[14],4.63%
same,"viability, T/C",[15],6.18%
same,"viability, T/C",[16],6.13%
same,"viability, T/C","second compound 1 µM, first compound 0.949 µM",6.09%
same,"viability, T/C","second compound 1 µM, first compound 3 µM",5.22%
same,"viability, T/C",[17],5.89%
same,"viability, T/C",[18],6.16%
same,"viability, T/C",[19],8.1%
same,"viability, T/C",[20],7.76%
same,"viability, T/C","second compound 3.16 µM, first compound 0.949 µM",7.74%
same,"viability, T/C","second compound 3.16 µM, first compound 3 µM",6.2%
same,"viability, T/C",[21],1.11%
same,"viability, T/C",[22],1.56%
same,"viability, T/C",[23],0.89%
same,"viability, T/C",[24],1.02%
same,"viability, T/C","second compound 10 µM, first compound 0.949 µM",0.68%
same,"viability, T/C","second compound 10 µM, first compound 3 µM",0.27%
Nc1ccccc1NC(=O)c1ccc(CNC(=O)OCc2cccnc2)cc1 + CN1CCN(c2cc(C(=O)Nc3cc4cc(-c5cnn(C)c5)ccc4cn3)ccn2)CC1,IC50,second compound 0.0316 µM,2690 nM
same,IC50,second compound 0.1 µM,1540 nM
same,IC50,second compound 0.316 µM,< 31.6 nM
same,IC50,second compound 1 µM,< 31.6 nM
same,IC50,second compound 3.16 µM,< 31.6 nM
same,IC50,second compound 10 µM,< 31.6 nM
same,"viability, T/C",[25],95.9%
same,"viability, T/C",[26],96.1%
same,"viability, T/C",[27],84.2%
same,"viability, T/C",[28],83.5%
same,"viability, T/C",[29],44.2%
same,"viability, T/C",[30],10.9%
same,"viability, T/C",[31],92.5%
same,"viability, T/C",[32],82.8%
same,"viability, T/C",[33],70.5%
same,"viability, T/C",[34],65.8%
same,"viability, T/C",[35],31.6%
same,"viability, T/C",[36],5.31%
same,"viability, T/C",[37],28.3%
same,"viability, T/C",[38],29.4%
same,"viability, T/C",[39],28.4%
same,"viability, T/C",[40],20.9%
same,"viability, T/C",[41],6.85%
same,"viability, T/C",[42],0.46%
same,"viability, T/C",[43],4.47%
same,"viability, T/C",[44],4.78%
same,"viability, T/C",[45],4.55%
same,"viability, T/C",[46],3.08%
same,"viability, T/C",[47],2.04%
same,"viability, T/C",[48],1.1%
same,"viability, T/C",[49],9.27%
same,"viability, T/C",[50],7.2%
same,"viability, T/C",[51],7.84%
same,"viability, T/C",[52],6.26%
same,"viability, T/C",[53],5.4%
same,"viability, T/C",[54],3.16%
same,"viability, T/C",[55],2.19%
same,"viability, T/C",[56],1.81%
same,"viability, T/C",[57],1.73%
same,"viability, T/C",[58],2.14%
same,"viability, T/C",[59],1.57%
same,"viability, T/C",[60],0.86%
